Data taken from US20050159362A1, “Mediators of reverse cholesterol transport for the treatment of hypercholesterolemia” (priority 2003, published 2005).
“Also recorded” adds a separate entry of the source.

Experiments:
[1] = test system: C57BL/6J mice fed a cholate-containing high fat diet (HFC); experiment: Effect of single bolus injections of peptides on plasma lipoprotein profile; format: in vivo, mouse
Experimental: Effect of single bolus injections of peptides on plasma lipoprotein profile—To monitor effect of peptides on plasma cholesterol levels and its distribution among the different lipoprotein classes, the nonradioiodinated free peptides (100 μg in 100 μl of PBS) were injected intravenously into the tail vein of nonfasted C57BL/6J wild type mice, which have been placed on high fat cholate-containing diet four days prior to experiment. To control for the effect of external- and/or internal nonspecific factors (stress of handling, anesthetic, blood drawing) on plasma lipoprotein profile, a similar group of mice was injected with only PBS. Different groups of mice were sacrificed before and at various times after injections and blood was drawn by retroorbital puncture and subjected to low speed centrifugation at 4° C. to obtain the plasma. Plasma samples were obtained, combined within each group (4 mice), and subjected to gel filtration chromatography on a Superose 6 (HR 10/30 column, FPLC) to monitor cholesterol lipoproteins distribution and agarose gel electrophoresis (Paragon Systems) to monitor phospholipid lipoproteins distribution.
(§1) To monitor cholesterol distribution among the different lipoprotein classes, plasma samples were combined within each group (usually 4-6 mice per group), and subjected to FPLC size-exclusion chromatography on a Superose 6 (HR 10/30 column, Amersham-Pharmacia) using an isocratic 10 mM Tris/150 mM NaCl/1 mM EDTA buffer system at a flow rate of 0.15 ml/min. Fractions (0.15 ml) were collected into 96-well plates containing 0.055 ml of 1:1 mixture of 0.5% Triton X-100 and 20 mM Sodium Cholate. Total and free cholesterol in plasma fractions was determined by using the fluorescent method of W. Gamble, et al. (Gamble et al., 1978, Journal Lipid Res., 16: 1068-1070). 96-well plates were read on Dual-Scanning Microplate Spectrofluorometer Gemini XS (Molecular Devices). The areas under the lipoprotein peaks were quantified by using Unicorn software (Version 3.21.02). The amount of esterified cholesterol was assessed by subtraction of free cholesterol from total cholesterol.
Mice were divided into two groups—control and experimental. Each group contained 4 mice.
Effect of “frame-shift” derived peptides on lipoprotein metabolism (Single bolus injections)—We performed the functional frame-shift of the entire region of mouse apolipoprotein A1 where SEQ ID NO: 1 derived from (helix 6, Pro166-Pro188, precursor protein). Frame-shift was done in both directions (form N-to C- and from C- to N-Terminus). […] Mice were divided into two groups—control and experimental. Each group contained 4 mice. […] The data are expressed as percent of change of total cholesterol (TC) content of VLDL, IDL/LDL, and HDL classes in experimental mice relative to control (PBS injected) mice.
Effect of chemically modified derivatives of SEQ ID NO: 1 and peptides derived from other mouse apoA1 regions on mouse plasma lipoprotein profile (Single bolus injections)—To increase SEQ ID NO: 1 hydrophobicity, Phenyl Acetyl or Pivalic Acid were attached to N-Terminal Tyr residue of SEQ ID NO: 1, or Tyr residue was removed from N-terminus. […] Mice were divided into two groups—control and experimental. Each group contained 4 mice. […] The data are expressed as percent of change of total cholesterol (TC) content of VLDL, IDL/LDL, and HDL classes in experimental mice relative to control (PBS injected) mice.

[2] = test system: LDLR−/− mice and A-I−/− mice; experiment: Plasma clearance and tissue distribution of SEQ ID NO: 1-125I-LDL complexes; format: in vivo, mouse
Experimental: Plasma clearance and tissue distribution of SEQ ID NO: 1-LDL complexes—^125I-LDL (0.2 nmol) was incubated at 37° C. in PBS alone, or with 4 nmol of SEQ ID NO: 1. After 2 h, the mixture was dialyzed against PBS containing […] BHT. ^125I-LDL alone or SEQ ID NO: 1/^125I-LDL complex were injected intravenously into the tail vein of nonfasted mice under metofane anesthesia. Mice were bled at the certain time points after the injection by retroorbital bleeding into heparinized tubes. The blood was subjected to low speed centrifugation (1800 g, 4° C.) and the 10% TCA precipitable radioactivity of the plasma was measured. […] An incision was made in the […] vena cava to clear the perfusate. Within 15 min, the liver, kidneys, spleen, and heart were removed, cleaned, weighed, and counted for ^125I radioactivity. Entire organs were counted with exception of liver, which was counted in pieces. Radioactivity detected per organ or per 1 g of wet tissue was expressed as a percent of the initial total injected radioactivity that was TCA precipitable.
To determine if SEQ ID NO: 1 can associate with human LDL, we attempted to form the complex of ^125I-SEQ ID NO: 1 with isolated human LDL. […] To determine if SEQ ID NQ: 1 influences lipoprotein transport to the liver, we injected the ^125-LDL alone or in complex with SEQ ID NO: 1 into LDLR−/− mice (no LDL-receptor) and A-I−/− mice, which have a functional hepatic LDL-receptor. […] To assess the contribution of LDL-receptors alone, the binding of [^125I-LDL] and [125I-LDL-SEQ ID NO: 1] to the liver of LDLR−/− mice was subtracted from their respective binding to the liver of A-I−/− mice, and data were normalized per gram of wet tissue. […] Influence of SEQ ID NO: 1 on ^125I-LDL binding to kidney, spleen, lung, heart, testis, adrenal, and prostate is shown in FIG. 8. It is noteworthy that no increase in 125I-LDL-SEQ ID NO: 1 complex binding to the heart was observed.

[3] = test system: C57BL/6J mice switched on HFC diet; experiment: Effect of time-released peptides on plasma lipoprotein profile (20 hrs pumps); format: in vivo, mouse; conditions: 20 hrs continuous infusion, pumps 8 ul/hr
Experimental: Effect of time-released peptides on plasma lipoprotein profile—To determine relatively long-term effect of SEQ ID NO: 1 and its derivatives on plasma lipoprotein profile, the Alzet Mini-Osmotic pumps (220 ul), containing various peptides or PBS, were surgically inserted in canulated Chow fed C57BL/6J mice. The pumps with flow rate equal to 8 μl/hr were used for 20 hrs continuous infusion of peptides. The pumps with flow rate equal to 1 μl/hr were used for 160 hrs continuous infusions of peptides. At the end point (20 or 160 hrs after pumps insertion) mice were sacrificed, and blood was drawn by retroorbital puncture and subjected to low speed centrifugation at 4° C. to obtain the plasma. Bile was immediately removed from gall bladders using insulin syringes, and stored on ice until use.
as §1
To monitor the distribution of phospholipid among the lipoprotein classes, plasma samples were combined within each group (usually 4-6 mice per group), and subjected to agarose gel electrophoresis, which was carried out using the Paragon system (Beckman Coulter) according to manufacturer's instructions, with following staining with Paragon Lipo Stain (Beckman Coulter 655910). Once dried, the gels were scanned on Personal Densitometer SI (Molecular Dynamics) and bands were quantified using ImageQuant™ software (Verssion 5.2).
Impact of SEQ ID NO: 1 on lipoprotein metabolism (20 hrs pumps)—To determine relatively long-term effect of SEQ ID NO: 1 on plasma lipoprotein profile, the Alzet Mini-Osmotic pumps, containing SEQ ID NO: 1 or PBS, were surgically inserted in canculated Chow fed C57BL/6J mice. The pumps flow rate was equal to 8 ul per hr, which provided the delivery amount of SEQ ID NO: 1 per hr as indicated for FIG. 9. Mice were switched on HFC diet immediately after surgery. 20 hrs later plasma samples were obtained, combined within each group (4 to 6 mice), and subjected to FPLC analysis and agarose gel electrophoresis for assessment of cholesterol and phospholipid distribution among the lipoprotein classes. […] The LDL lowering effect was attenuated with increase of SEQ ID NO: 1 concentration. This phenomenon can be explained by self-competition between free and LDL-bound form of SEQ ID NO: 1 for the liver lipoprotein binding sites. In contrast, HDL cholesterol levels were positively correlated with SEQ ID NO: 1 concentration.
Impact of SEQ ID NO: 1 structural derivatives (3 to 13 amino acid residues) on lipoprotein metabolism (20 hrs pumps)—To determine relatively long-term effect on plasma lipoprotein profile, the Alzet Mini-osmotic pumps, containing SEQ ID NO: 1 derivatives or PBS, were surgically inserted in canulated Chow fed C57BL/6J mice. The pumps flow rate was equal to 8 ul per hr, which provided the deliveries of 30-40 μg of peptides per hr. Mice were switched on HFC diet immediately after surgery. […]

YEFRDRMRTH [SEQ ID NO: 1]
duration of effect after single bolus injection [1]: up to 180 min
impact on plasma HDL-C levels ([1]; single bolus i.v. 100 μg): slight but significant decrease
impact on VLDL level ([1]; single bolus i.v. 100 μg, entire time course): no significant impact
impact on plasma IDL/LDL, low density lipoproteins ([1]; single bolus i.v. 100 μg, 90, 120 and 180 min after injection): Significant lowering; also recorded: strongest impact
plasma clearance of 125I-LDL-SEQ ID NO: 1 complex ([2]; ApoA1−/− mice, compared to 125I-LDL alone): enhanced plasma clearance
liver-bound 125I-LDL after complexing with SEQ ID NO: 1 ([2]; both mouse genotypes (LDLR−/− and A-I−/−), compared to 125I-LDL alone): significant increase
complex binding to the LDL-receptors (liver binding in A-I−/− minus LDLR−/− mice) ([2]; compared to 125I-LDL alone, per gram of wet tissue): substantial increase
125I-LDL-SEQ ID NO: 1 complex binding to the heart ([2]; mouse, in vivo): no increase
plasma HDL cholesterol levels [3]: elevated
plasma levels of HDL phospholipids [3]: elevated
plasma levels of low density lipoproteins [3]: dramatic decrease
in vivo half-life: 2 to 3 h
